Active and inactive are the calls of the source. No cut-off for these calls is given here.
Tests used:
[1] = tested on: MEB5; assay: Induction of neuronal differention in mouse MEB5 neurospheres at 100 uM after 4 days by DAPI dye-based fluorescence confocal laser scaning microscopic analysis; type: functional, cell-based
[2] = tested on: MEB5; assay: Induction of neuronal differention in mouse MEB5 neurospheres at 10 uM after 4 days by DAPI dye-based fluorescence confocal laser scaning microscopic analysis; type: functional
[3] = tested on: MEB5; assay: Increase in neuronal differention in mouse MEB5 neurospheres at 10 uM after 4 days by DAPI dye-based fluorescence confocal laser scaning microscopic analysis; type: functional
[4] = biological target: T1, Transcription factor HES-1 (Rattus norvegicus) (UniProt Q04666); assay: Binding affinity to rat GST-tagged truncated HES1 (151 to 281 residues) expressed in Escherichia coli JM109 after 2 hrs by HPLC based bead assay
T1 sequence (whole entry): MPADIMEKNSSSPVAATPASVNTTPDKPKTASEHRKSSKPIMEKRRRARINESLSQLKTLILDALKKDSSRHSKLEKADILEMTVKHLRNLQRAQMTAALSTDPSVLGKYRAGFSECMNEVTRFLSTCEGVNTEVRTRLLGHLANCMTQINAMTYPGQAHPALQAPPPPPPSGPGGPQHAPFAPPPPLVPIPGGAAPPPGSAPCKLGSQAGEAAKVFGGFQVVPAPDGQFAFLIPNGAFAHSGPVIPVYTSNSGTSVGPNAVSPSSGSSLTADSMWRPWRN

[5] = biological target: T1, Transcription factor HES-1 (Rattus norvegicus); assay: Binding affinity to rat GST-tagged truncated HES1 (1 to 95 residues) expressed in Escherichia coli JM109 after 2 hrs by HPLC based bead assay
[6] = biological target: T1, Transcription factor HES-1 (Rattus norvegicus); assay: Binding affinity to rat GST-tagged truncated HES1 (47 to 281 residues) expressed in Escherichia coli JM109 after 2 hrs by HPLC based bead assay
[7] = biological target: T1, Transcription factor HES-1 (Rattus norvegicus); assay: Binding affinity to rat GST-tagged truncated HES1 (47 to 156 residues) expressed in Escherichia coli JM109 after 2 hrs by HPLC based bead assay

| SMILES | Activity [1] | Activity [2] | Activity [3] | Activity [4] | Activity [5] | Activity [6] | Activity [7] |
| --- | --- | --- | --- | --- | --- | --- | --- |
| CCCC(CCC)C(=O)O | Active | – | – | – | – | – | – |
| C/C=C/C=C/C=C/[C@@H]1NCC[C@@H](O)[C@H]1C | – | 35% | 34% | – | – | – | – |
| CC1=C\C=C\C=C\CC(C)NC(=O)/C=C/C=C/C=C/C(C)C(O)C(O)C(O)CC(O)/C=C\C=C\1 (centres undefined) | – | 30% | 17% | Active | Active | Active | Active |
